Assay results published in ChEMBL document CHEMBL2429738, “Synthesis and biological evaluation of biotin conjugates of (±)-(4bS,8aR,10aS)-10a-ethynyl-4b,8,8-trimethyl-3,7-dioxo-3,4b,7,8,8a,9,10,10a-octahydro-phenanthrene-2,6-dicarbonitrile, an activator of the Keap1/Nrf2/ARE pathway, for the isolation of its protein targets” (Bioorg Med Chem Lett, 2013).

Target: NAD(P)H dehydrogenase [quinone] 1 (Mus musculus) (UniProt Q64669)
Test: Induction of NQO1 activity in mouse Hepa1c1c7 cells assessed as concentration required to double specific enzyme activity after 48 hrs
Type: cell-based

NAD(P)H dehydrogenase [quinone] 1 (Mus musculus), sequence (Q64669 whole entry): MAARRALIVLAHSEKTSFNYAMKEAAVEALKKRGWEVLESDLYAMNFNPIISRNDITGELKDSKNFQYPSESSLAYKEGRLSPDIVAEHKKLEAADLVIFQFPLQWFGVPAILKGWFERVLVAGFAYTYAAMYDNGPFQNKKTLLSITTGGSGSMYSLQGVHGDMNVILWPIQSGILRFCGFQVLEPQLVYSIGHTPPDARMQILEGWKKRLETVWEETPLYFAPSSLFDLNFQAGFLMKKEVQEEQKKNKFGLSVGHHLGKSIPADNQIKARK

C#C[C@]12C=C(C#N)C(=O)C=C1[C@@]1(C)C=C(C#N)C(=O)C(C)(C)[C@@H]1CC2 (racemic)
CD: 1 nM

C#C[C@]12C=C(C#N)C(=O)C=C1[C@@]1(C)C=C(C#N)C(=O)[C@@](C)(CO)[C@@H]1CC2 (racemic)
CD: 2.2 nM
